The results in this text go back to PMC6900016, “Synthesis of Indomorphan Pseudo‐Natural Product Inhibitors of Glucose Transporters GLUT‐1 and ‐3” (Angewandte Chemie (International Ed. in English), 2019).

This assay concerns HCT116. The assay can be described thus: cells. The arrangement: 2-deoxyglucose uptake inhibition, semi-automated resazurin/diaphorase fluorescence read-out of 2DG6P. The note with it: Homo sapiens, HCT-116, 0.5 h; 2DG uptake. As for the experimental part:
Resazurin-based 2DG uptake assay (semi-automated high throughput) All buffers, reagents and steps were identical with those described for the manual screening Washing and [compound left out] addition steps were done using an automated cell washer or a multidrop device, respectively. Screening was performed in a 384-well plates. 15,000 HCT116 cells/well seeded into 384-well black-walled, clear bottomed plates (CellBIND, Corning) and incubated overnight. Compounds were added at 30 µM (final concentration for screening or serial dilutions staring from 30 µM for IC50 determinations) from DMSO stocks using the acoustic nanoliter dispenser ECHO 520. Fluorescence intensity was read from the bottom with a SpectraMax Paradigm Multi-Mode Microplate Reader (Molecular devices) using SUPPORTING INFORMATION 259 control (which was set to 100 %) and cells without 2DG (set to 0 %) using Graph Pad Prism 5 or 6 software and IC50 values were determined using a four-parameter fit. The observed difference in the obtained IC50 values for Glupin in the automated screening vs. manually performed assay is most likely attributed to the minituarization that is required for high-troughput screening and usually requires different plate format (384 vs. 96-well plates) and different cell number. In this case, the automated assay was performed in 384-well plates (vs. 96-well plates for the manual assay) with 15,000 cells per well (vs. 40,000 cells per well in the 96-well plates). For kinetic measurements, 15,000 cells were seeded into black CellBIND 384-well plates (Corning) and allowed to attach overnight. Then, the plates were washed 3X with KRB buffer containing 0.1%BSA and treated with different concentrations of 2DG (0-60mM) and Glupin (0-1µM) for 30s to 30min. The uptake was determined using the resazurin/diaphorase system as described above. 2DG uptake was stopped by aspirating the 2DG solution followed by quick wash with ice-cold KRB buffer (0.1 % BSA). Km and Vmax were determined by fitting the data according to Michaelis-Menten using non-linear fitting. The glucose uptake assay monitored the inhibition of 2‐deoxyglucose (2DG) uptake as described by Yamamoto et al.25 Briefly, 2DG uptake is determined by quantification of the 2DG‐6‐phosphate (2DG6P) that accumulates inside the cells by using the diaphorase‐resazurin/‐resorufin system (see Figure S7 a).
For the molecule `COC1CN(C(=O)c2cccnc2SC)C2Cc3c(n(Cc4ccco4)c4ccccc34)C1C2` (racemic) [5o, (±)-(7-(furan-2-ylmethyl)-5-methoxy-5,6-dihydro-1H-2,6-methanoazocino[5,4-b]indol-3(2H,4H,7H)-yl)(2-(methylthio)pyridin-3-yl)methanone], the IC50 (in general, the concentration at which inhibition is half-maximal) was determined as 6.7 ± 2.4 µM.

In the case of `CCOC(=O)n1c2c(c3ccccc31)CC1CC2C(OC)CN1C(=O)c1cccnc1SC` (racemic) [5p, (±)-ethyl 5-methoxy-3-(2-(methylthio)nicotinoyl)-3,4,5,6-tetrahydro-1H-2,6-methanoazocino[5,4-b]indole-7(2H)-carboxylate], the IC50 worked out at 28 ± 2 µM.

For the molecule `CCOC(=O)CCn1c2c(c3ccccc31)CC1CC2C(OC)CN1C(=O)c1cccnc1SC` (racemic) [5q, (±)-ethyl 3-(5-methoxy-3-(2-(methylthio)nicotinoyl)-3,4,5,6-tetrahydro-1H-2,6-methanoazocino[5,4-b]indol-7(2H)-yl)propanoate], the IC50 was 8.4 ± 3.6 µM.

In the case of `CCOC(=O)Cn1c2c(c3ccccc31)CC1CC2C(OC)CN1C(=O)c1cccnc1` (racemic) [5t, (±)-Ethyl 2-(5-methoxy-3-nicotinoyl-3,4,5,6-tetrahydro-1H-2,6-methanoazocino[5,4-b]indol-7(2H)-yl)acetate], the IC50 was 2.3 ± 0.8 µM.

For `CCOC(=O)Cn1c2c(c3ccccc31)CC1CC2C(OC)CN1C(=O)c1cccnc1F` (racemic) [5u, (±)-Ethyl 2-(3-(2-fluoronicotinoyl)-5-methoxy-1,2,3,4,5,6-hexahydro-7H-2,6-methanoazocino[5,4-b]indol-7-yl)acetate], the IC50 came to 0.54 ± 0.16 µM.

As to `CCOC(=O)Cn1c2c(c3ccccc31)CC1CC2C(OC)CN1C(=O)c1cccnc1OC` (racemic) [5v, (±)-Ethyl 2-(5-methoxy-3-(2-methoxynicotinoyl)-1,2,3,4,5,6-hexahydro-7H-2,6-methanoazocino[5,4-b]indol-7-yl)acetate], the IC50 stood at 0.23 ± 0.05 µM.

Take `CCOC(=O)Cn1c2c(c3ccccc31)CC1CC2C(OC)CN1C(=O)c1cccnc1C(F)(F)F` (racemic) [5w, (±)-Ethyl 2-(5-methoxy-3-(2-(trifluoromethyl)nicotinoyl)-1,2,3,4,5,6-hexahydro-7H-2,6-methanoazocino[5,4-b]indol-7-yl)acetate]: the IC50 was determined as 0.12 ± 0.03 µM.

With `CCOC(=O)Cn1c2c(c3ccccc31)CC1CC2C(OC)CN1C(=O)c1c(C(F)(F)F)ccnc1SC` (racemic) [5x, (±)-Ethyl 2-(5-methoxy-3-(2-(methylthio)-4-(trifluoromethyl)nicotinoyl)-1,2,3,4,5,6-hexahydro-7H-2,6-methanoazocino[5,4-b]indol-7-yl)acetate], the IC50 is 6.7 ± 1.6 µM.

With `CCOC(=O)Cn1c2c(c3ccccc31)CC1CC2C(OC)CN1C(=O)c1cc(C(F)(F)F)cnc1SC` (racemic) [5y, (±)-Ethyl 2-(5-methoxy-3-(2-(methylthio)-5-(trifluoromethyl)nicotinoyl)-1,2,3,4,5,6-hexahydro-7H-2,6-methanoazocino[5,4-b]indol-7-yl)acetate], the IC50 was found to be 14 ± 4 µM.

`C=CCOC1CN(C(=O)c2cccnc2SC)C2Cc3c(n(CC(=O)OCC)c4ccccc34)C1C2` (racemic) [5z, (±)-Ethyl 2-(5-(allyloxy)-3-(2-(methylthio)nicotinoyl)-1,2,3,4,5,6-hexahydro-7H-2,6-methanoazocino[5,4-b]indol-7-yl)acetate]: the IC50 was found to be 0.12 ± 0.02 µM.

Regarding `CCOC(=O)Cn1c2c(c3ccccc31)CC1CC2C(OC)CN1C(=O)c1cccnc1SC` (racemic) [(±)-Glupin], the 50% inhibitory concentration (IC50) amounted to 0.055 ± 0.017 µM.

For the molecule `CNC(=O)Cn1c2c(c3ccccc31)CC1CC2C(OC)CN1C(=O)Cc1cccs1` (stereo not shown) [5au], the IC50 was 16 ± 1 µM.

For `CNC(=O)Cn1c2c(c3ccccc31)CC1CC2C(OC)CN1C(=O)c1cnccn1` (stereo not shown) [5av], the IC50 is above 30 µM.

For the molecule `CCOC(=O)Cn1c2c(c3ccccc31)CC1CC2C(OC)CN1C(=O)c1cnccn1` (stereo not shown) [5aw], the IC50 came to 2 ± 0.4 µM.

For the molecule `COC1CN(C(=O)c2cnccn2)C2Cc3c(n(CC(N)=O)c4ccccc34)C1C2` (stereo not shown) [5ax], the IC50 is above 30 µM.

`CNC(=O)Cn1c2c(c3ccccc31)CC1CC2C(OC)CN1C(=O)N1CCOCC1` (stereo not shown) [5ay]: the IC50 was above 30 µM.
